Reference: patent publication US9393288B2, “Methods of treating diseases associated with PPARγ” (The University of Vermont and State Agricultural College, priority 2012, dated 2016)

Columns and labels:
[1] = rat, in vivo
Procedure: A separate group of SHR-F was used to determine if relaxin crosses the BBB by treating with relaxin (4 μg/hr) for 14 days and measuring relaxin concentration in cerebrospinal fluid (CSF) and serum (SHR-F-Rln-CSF, n=4). For the osmotic pump implant, animals were anesthetized with 3% isoflurane and minipumps implanted subcutaneously in the back of the neck. All animals received post-surgical analgesia (buprenorphine, 50 μg/kg, s.c.). Relaxin infusion was continuous for 14 days until animals were euthanized for isolated vessel experiments and tissue collection.
Animals were anesthetized with isoflurane (3% in oxygen), decapitated, and trunk blood was collected for measurement of circulating relaxin. Serum was then collected and stored at −80° C. for determination of relaxin levels by enzyme-linked immunosorbent assay (ELISA) following manufacturer's instructions (Human Relaxin-2 Quantikine ELISA Kit, R&D Systems, Minneapolis, Minn., USA). Serum samples were diluted by 1:500 in the assay.
To determine the presence of relaxin in CSF, animals were anesthetized and CSF collected through a needle inserted into the cisterna magna (Liu, L., and Duff, K. (2008) A technique for serial collection of cerebrospinal fluid from the cisterna magna in mouse. Journal of visualized experiments: JoVE). […] Relaxin levels were determined in serum and CSF by ELISA as described above, except CSF was not diluted.

MMP-2 = MMP-2 mRNA expression (qPCR) in brain cortex and PA, SHR; format: in vivo, rat; settings: relaxin-treated SHR
Procedure: After dissecting PA and MCA for isolated vessel experiments, the remaining MCA, PA, and brain cortex from the MCA territory of 4-6 rats were collected and stored at −80° C. in RNase inhibitor (1 unit/μl, RiboLock, Fermentas, Glen Burnie, Md., USA) to determine mRNA expression levels of target genes using real-time qPCR methods. Target genes were assessed using Assays on Demand from Applied Biosystems. […] All primers were designed across an exon-exon junction to avoid detecting genomic DNA, so no DNase treatment was required. Housekeeping gene β-actin was used in all qPCR experiments as a control. […]
To investigate the mechanisms by which relaxin causes selectively remodeling of PA, mRNA expression of VEGF, MMP-2, and MMP-9 were compared between MCA, PA, brain cortex. To determine if relaxin activates peroxisome proliferator-activated receptor-gamma (PPARγ), expression levels of PPARγ target genes fatty acid binding protein-4 (FABP4) and plasminogen activator inhibitor-1 (PAI-1) were determined in mesenteric adipose tissue. Expression levels of PPARγ and its target genes PAI-1 and liver X receptors-α (LXR-α) were also determined in brain cortex (Chan, S. L., and Cipolla, M. J. (2012) Determination of PPARgamma activity in adipose tissue and spleen. J Immunoassay Immunochem 33, 314-324).

[2] = test system: middle cerebral arteries (MCA); test: Pressurized arteriograph: vascular reactivity and structure of MCA from relaxin-treated NP Sprague Dawley rats; format: in vivo, rat; settings: relaxin- vs vehicle-treated NP rats
Description: Animals and Treatment Groups: All procedures were approved by the Institutional Animal Care and Use Committee and conducted in accordance with the National Institutes of Health Guide for the Care and Use of Laboratory Animals. Female virgin NP Sprague Dawley rats (250-300 g, 14-16 weeks, Charles River, Canada) were used for all experiments and housed in the University of Vermont Animal Care Facility. Animals were randomly selected and grouped as untreated (N=4), treated with recombinant human relaxin-2 (relaxin, 4 μg/hr; N=14), relaxin plus a specific PPARγ inhibitor GW9662 (10 mg/kg daily in food; N=8), or vehicle (20 mM sodium acetate; N=14) for 10 days through osmotic minipumps (Alzet 2ML2, Durect Corp., Cupertino, Calif., USA). GW9662 treatment was started 1 day before and for the duration of relaxin treatment to ensure PPARγ was inhibited. Animals were anesthetized with 3% isoflurane and minipumps implanted subcutaneously in the back of the neck. All animals received post-surgical analgesic (buprenorphine, 50 μg/kg, s.c.). […]
Vessel Preparation and Pressurized Arteriograph System: After collecting trunk blood, the brain was quickly removed and placed in cold physiological salt solution (PSS). […] Temperature and pH were continuously measured and maintained at 37.0±0.5° C. and 7.40±0.05, respectively. […]
Vascular Reactivity and Structural Characteristics in PA and MCA: For the first set of experiments, PA and MCA were equilibrated for 1 hour at 25 mmHg, after which myogenic activity was determined by stepwise increases in pressure from 40 to 100 mmHg for PA or 50 to 175 mmHg for MCA. ID and WT were measured at each pressure once stable. Changes in ID and WT were measured in PA only in response to small- (SKCa) and intermediate- (IKCa) conductance calcium-activated potassium channels blockers, apamin (3×10^−7 M) and TRAM-34 (10^−6 M), respectively. […] We therefore assessed the effect of relaxin on constriction of PA in response to SKCa/IKCa channel inhibition in order to assess this unique pathway. […]

relaxin
Relaxin in CSF as share of that in the circulation [1]: about 0.3%
Relaxin in cerebrospinal fluid [1]: 110 ± 30 pg/mL
MMP-2 expression in brain cortex (MMP-2): increased
Structure of MCA [2]: no effect
Tone of MCA [2]: did not significantly affect
Active diameters of MCA ([2]; any pressure): no effect
